According to publication PMC7986984 (Brain, behavior, and immunity, 2020):
Like-named read-outs stand apart in the source and are kept apart here. Marks after values point to notes of the source that are not given here.

Columns and labels:
[1] = format: in vivo, mice; conditions: for AUC: over 24 h; for Cmax: n = 6 +/- SEM
[2] = format: in vivo, mice; conditions: for AUC: over 24 h; for Cmax: mice, bolus by oral gavage, 0.25-24 h, n = 6 +/- SEM
[3] = male, mouse, brain, po, AUC, Chronic BDPP
[4] = male, mouse, brain, po, AUC, Chronic Synbiotic
[5] = male, mouse, brain, po, Cmax, Chronic BDPP
[6] = male, mouse, brain, po, Cmax, Chronic Synbiotic
[7] = male, mouse, brain, po, Tmax, Chronic BDPP
[8] = male, mouse, brain, po, Tmax, Chronic Synbiotic
[9] = male, mouse, plasma, po, AUC, Chronic BDPP
[10] = male, mouse, plasma, po, AUC, Chronic Synbiotic
[11] = male, mouse, plasma, po, Tmax, Chronic BDPP
[12] = male, mouse, plasma, po, Tmax, Chronic Synbiotic

AUC [1, 3]	AUC [1, 4]	Cmax [1, 5]	Cmax [1, 6]	Tmax [1, 7]	Tmax [1, 8]	AUC [2, 9]	AUC [2, 10]	Tmax [2, 11]	Tmax [2, 12]	Compound	also measured
0.0881 µg·h/mL	0.291 µg·h/mL	15.2 ± 3.1 ng/mL	14.4 ± 3.8 ng/mL	18 min	30 min	0.138 µg·h/mL	0.0334 µg·h/mL	18 min	18 min	O=C(O)c1ccc(O)c(O)c1 [3,4-diHBA, 3,4-Dihydroxybenzoic acid]	–
2.2 µg·h/mL	2.12 µg·h/mL	100 ± 7 ng/mL	126 ± 24 ng/mL	60 min	120 min	0.74 µg·h/mL	0.344 µg·h/mL	30 min	30 min	O=C(O)Cc1ccc(O)c(O)c1 [3,4-diHPAA, 3,4-Dihydroxyphenylacetic acid]	–
1.7 µg·h/mL	6.68 µg·h/mL	108 ± 19.3 ng/mL	448 ± 15 ng/mL	0 min	480 min	0.866 µg·h/mL	1.28 µg·h/mL	–	1440 min	O=C(O)c1ccc(O)cc1 [4-HBA, 4-Hydroxybenzoic acid]	–
–	–	–	–	–	–	0.0017 µg·h/mL	0.0059 µg·h/mL	18 min	120 min	O=C(O)CNC(=O)c1ccc(O)cc1 [4-HHA, 4-Hydroxyhippuric acid]	–
0.0033 µg·h/mL	0.0068 µg·h/mL	2.2 ± 0.4 ng/mL	5 ± 1 ng/mL	30 min	18 min	0.336 µg·h/mL	0.163 µg·h/mL	30 min	30 min	COc1c(O)cc(C(=O)O)cc1O [4-MeGA, 4-O-Methylgallic acid]	–
–	–	–	–	–	–	0.123 µg·h/mL	0.224 µg·h/mL	30 min	60 min	O=C1CCC(Cc2ccc(O)c(O)c2)O1 (centres unmarked) [DHVL, 5-(3′,4′-Dihydroxyphenyl)-γ-valerolactone]	–
–	–	–	–	–	–	0.189 µg·h/mL	0.413 µg·h/mL	18 min	18 min	Oc1cc(O)c2c(c1)O[C@H](c1ccc(O)c(O)c1)[C@H](O)C2 [EC, Epicatechin]	–
7.56 µg·h/mL	4.76 µg·h/mL	1340 ± 611 ng/mL	336 ± 112 ng/mL	18 min	120 min	1.27 µg·h/mL	2.39 µg·h/mL	18 min	–	O=C(O)c1cc(O)c(O)c(O)c1 [GA, Gallic acid]	–
0.0978 µg·h/mL	0.578 µg·h/mL	86.5 ± 38 ng/mL	118 ± 18 ng/mL	18 min	60 min	0.0853 µg·h/mL	0.305 µg·h/mL	30 min	18 min	O=c1c(O)c(-c2cc(O)c(O)c(O)c2)oc2cc(O)cc(O)c12 [MYR, Myricetin]	–
0.142 µg·h/mL	0.544 µg·h/mL	89.5 ± 48.3 ng/mL	98.6 ± 24.7 ng/mL	18 min	120 min	0.0461 µg·h/mL	0.583 µg·h/mL	18 min	18 min	O=c1c(O)c(-c2ccc(O)c(O)c2)oc2cc(O)cc(O)c12 [QUER, Quercetin]	–

Further lines, the compound ahead of its results:

Compound	AUC [1, 3]	AUC [1, 4]	Cmax [1, 5]	Cmax [1, 6]	Tmax [1, 7]	Tmax [1, 8]	AUC [2, 9]	AUC [2, 10]	Tmax [2, 11]	Tmax [2, 12]	also measured
O=C(O)c1cccc(O)c1 [3-HBA, 3-Hydroxybenzoic acid]	0.0673 µg·h/mL	0.146 µg·h/mL	5.4 ± 0.4 ng/mL	8.9 ± 1.8 ng/mL	30 min	240 min	0.366 µg·h/mL	0.214 µg·h/mL	60 min	60 min	–
O=C(O)Cc1cccc(O)c1 [3-HPAA, 3-Hydroxyphenylacetic acid]	0.029 µg·h/mL	0.0412 µg·h/mL	2.7 ± 0.3 ng/mL	3.2 ± 0.5 ng/mL	30 min	30 min	0.606 µg·h/mL	1.08 µg·h/mL	60 min	18 min	–
O=C(O)CCc1cccc(O)c1 [3-HPPA, 3-(3-Hydroxyphenyl)propionic acid]	–	–	–	–	–	–	0.0047 µg·h/mL	0.06 µg·h/mL	60 min	120 min	–
O=C(O)C=Cc1ccc(O)cc1 [4-HCA, 4-Hydroxycinnamic acid]	–	–	–	–	–	–	0.455 µg·h/mL	1.67 µg·h/mL	18 min	18 min	–
Oc1cc(O)c2c(c1)OC(c1ccc(O)c(O)c1)C(O)C2 (centres unmarked) [C, Catechin]	–	–	–	–	–	–	–	–	–	–	Tmax ([2]; Plasma, Chronic BDPP): 30 min; Cmax ([2]; Plasma, Chronic BDPP): 55.5 ± 7.8 ng/mL; AUC ([2]; Plasma, Chronic BDPP): 80.6** ng/mL*h; Tmax ([2]; Plasma, Chronic Synbiotic): 60 min; Cmax ([2]; Plasma, Chronic Synbiotic): 0.0098 ± 0.0007 ng/mL; AUC ([2]; Plasma, Chronic Synbiotic): 0.0252 µg·h/mL
COc1cc(CCC(=O)O)ccc1O [DHFA, Dihyroferulic acid]	–	–	–	–	–	–	–	–	–	–	Tmax ([2]; Plasma, Chronic BDPP): 18 min; Cmax ([2]; Plasma, Chronic BDPP): 2.5 ± 0.7 ng/mL; AUC ([2]; Plasma, Chronic BDPP): 0.0307 µg·h/mL; Tmax ([2]; Plasma, Chronic Synbiotic): 18 min; Cmax ([2]; Plasma, Chronic Synbiotic): 0.0077 ± 0.0011 ng/mL; AUC ([2]; Plasma, Chronic Synbiotic): 0.0302 µg·h/mL
Oc1ccc(CCc2cc(O)cc(O)c2)cc1 [DHRSV, Dihydroresveratrol]	–	–	–	–	–	–	1.05 µg·h/mL	7.8 µg·h/mL	60 min	480 min	–
COc1cc(/C=C/C(=O)O)ccc1O [FA, Ferulic acid]	–	–	–	–	–	–	–	–	–	–	Tmax ([1]; Brain, Chronic BDPP): 30 min; Cmax ([1]; Brain, Chronic BDPP): 1.5 ± 0.3 ng/mL; AUC ([1]; Brain, Chronic BDPP): 0.0188 µg·h/mL; Tmax ([1]; Brain, Chronic Synbiotic): 120 min; Cmax ([1]; Brain, Chronic Synbiotic): 0.0023 ± 0.0006 ng/mL; AUC ([1]; Brain, Chronic Synbiotic): 0.02 µg·h/mL; Tmax ([2]; Plasma, Chronic BDPP): 30 min; Cmax ([2]; Plasma, Chronic BDPP): 28.9 ± 9.7 ng/mL; AUC ([2]; Plasma, Chronic BDPP): 320.9** ng/mL*h; Tmax ([2]; Plasma, Chronic Synbiotic): 30 min; Cmax ([2]; Plasma, Chronic Synbiotic): 0.0226 ± 0.0062 ng/mL; AUC ([2]; Plasma, Chronic Synbiotic): 0.1388 µg·h/mL
O=C(O)CNC(=O)c1ccccc1 [HA, Hippuric acid]	0.518 µg·h/mL	1.81 µg·h/mL	22.4 ± 11.6 ng/mL	111 ± 7.2 ng/mL	60 min	480 min	0.889 µg·h/mL	1.32 µg·h/mL	60 min	240 min	–
COc1cc(CC(=O)O)ccc1O [HVA, Homovanillic acid]	5.92 µg·h/mL	6.22 µg·h/mL	296 ± 10 ng/mL	301 ± 14 ng/mL	60 min	60 min	0.205 µg·h/mL	1.47 µg·h/mL	60 min	30 min	–
O=C(O)Cc1ccccc1 [PA, Phenylacetic acid]	6970 µg·h/mL	14500 µg·h/mL	447000 ± 37200 ng/mL	760000 ± 140000 ng/mL	30 min	480 min	8630 µg·h/mL	8800 µg·h/mL	30 min	240 min	–
Oc1cc(O)c2c(c1)O[C@H](c1ccc(O)c(O)c1)[C@H](O)[C@H]2c1c(O)cc(O)c2c1O[C@H](c1ccc(O)c(O)c1)[C@H](O)C2 [PAC-B2, Proanthocyanidin dimer B2]	–	–	–	–	–	–	–	–	–	–	Tmax ([2]; Plasma, Chronic BDPP): 30 min; Cmax ([2]; Plasma, Chronic BDPP): 2.0 ± 0.7 ng/mL; AUC ([2]; Plasma, Chronic BDPP): 0.0015 µg·h/mL; Tmax ([2]; Plasma, Chronic Synbiotic): 30 min; Cmax ([2]; Plasma, Chronic Synbiotic): 0.0027 ± 0.0008 ng/mL; AUC ([2]; Plasma, Chronic Synbiotic): 3.5* ng/mL*h
Oc1ccc(/C=C/c2cc(O)cc(O)c2)cc1 [RSV, t-Resveratrol (−)]	–	–	–	–	–	–	–	–	–	–	Tmax ([1]; Brain, Chronic BDPP): 18 min; Cmax ([1]; Brain, Chronic BDPP): 9.5 ± 2.5 ng/mL; AUC ([1]; Brain, Chronic BDPP): 122.3** ng/mL*h; Tmax ([1]; Brain, Chronic Synbiotic): 120 min; Cmax ([1]; Brain, Chronic Synbiotic): 0.0038 ± 0.0002 ng/mL; AUC ([1]; Brain, Chronic Synbiotic): 0.0331 µg·h/mL; Tmax ([2]; Plasma, Chronic BDPP): 30 min; Cmax ([2]; Plasma, Chronic BDPP): 11628.0 ± 1788.0 ng/mL; AUC ([2]; Plasma, Chronic BDPP): 51313.0* ng/mL*h; Tmax ([2]; Plasma, Chronic Synbiotic): 30 min; Cmax ([2]; Plasma, Chronic Synbiotic): 15.785 ± 4.246 ng/mL; AUC ([2]; Plasma, Chronic Synbiotic): 33.1507 µg·h/mL
COc1cc(C(=O)O)ccc1O [VA, Vanillic acid]	0.169 µg·h/mL	0.205 µg·h/mL	9.7 ± 1 ng/mL	13.9 ± 1.8 ng/mL	18 min	60 min	0.299 µg·h/mL	0.118 µg·h/mL	30 min	18 min	–
